In patent publication US20180099967A1, “FUSED TRICYCLIC HETEROCYCLIC COMPOUNDS AS HIV INTEGRASE INHIBITORS” (MERCK SHARP & DOHME CORP., priority 2015, published 2018):
Where two headings read alike, the source gives them in different places.

Tested on: HIV-1
Assay: microbe, parasite or virus in culture
Type: cell-based, HIV-1 (H9IIIB or NL4-3 virus)
Description: HIV-1 replication was monitored using MT4-gag-GFP clone D3 (hereafter designate MT4-GFP), which are MT-4 cells modified to harbor a GFP reporter gene, the expression of which is dependent on the HIV-1 expressed proteins tat and rev. Productive infection of an MT4-GFP cell with HIV-1 results in GFP expression approximately 24 h post-infection.
MT4-GFP cells were maintained at 37° C./5% CO2/90% relative humidity in RPMI 1640 supplemented with 10% fetal bovine serum, 100 U/ml penicillin/streptomycin, and 400 μg/ml G418 to maintain the reporter gene. For infections, MT4-GFP cells were placed in the same medium lacking G418 and infected overnight with H9IIIB or NL4-3 virus at an approximate multiplicity of infection of 0.01 in the same incubation conditions. Cells were then washed and resuspended in either RPMI 1640 containing no serum at 1.6×10^5 cells/mL (serum free conditions), 10% normal human serum at 1.6×10^5 cells/mL (10% NHS conditions) or in 100% normal human serum at 2×10^5 cells/mL (100% NHS conditions). Compound plates were prepared by dispensing compounds taken up in DMSO into wells of 384 well poly D lysine-coated plates (0.2 μl/well) using an ECHO acoustic dispenser. Each compound was tested in a 10 point serial 3-fold dilution (typical final concentrations: 4.2 μM-0.21 nM). Controls included no inhibitor (DMSO only) and a combination of three antiviral agents (efavirenz, indinavir, and the integrase strand transfer inhibitor L-002254051 at final concentrations of 4 μM each). Cells were added (50 μL/well) to compound plates and the infected cells were maintained at 37° C./5% CO2/90% relative humidity.
Infected cells were quantified at two time points, ˜48 h and ˜72 h post-infection, by counting the number of green cells in each well using an Acumen eX3 scanner. […] Inhibition of R0 is calculated for each well, and IC50 value was determined using non-linear 4-parameter curve fitting.

[1] = Human immunodeficiency virus 1, read-out: WILD TYPE CELL ASSAY Viking IP (0% NHS) (nM)
[2] = Human immunodeficiency virus 1, read-out: WILD TYPE CELL ASSAY Viking IP (100% NHS) (nM)
[3] = read-out: WILD TYPE CELL ASSAY Viking IP (0% NHS)
[4] = read-out: WILD TYPE CELL ASSAY Viking IP (100% NHS)

| Structure (SMILES) | IC50 [1] [nM] | IC50 [2] [nM] | IC50 [3] [nM] | IC50 [4] [nM] |
| --- | --- | --- | --- | --- |
| CCN1C[C@H]2C[C@@H](NC(C)=O)c3c(C(=O)NCc4ccc(F)cc4F)c(=O)c(O)c(n32)C1=O [Compound 55] | 8 | 540 |  |  |
| [2H]C([2H])([2H])C([2H])([2H])N[C@H]1C[C@@H]2CN(CC)C(=O)c3c(O)c(=O)c(C(=O)NCc4ccc(F)cc4F)c1n32 [Compound 31] | 5 | 3720 |  |  |
| CCN[C@@H]1C[C@@H]2CN(CC)C(=O)c3c(O)c(=O)c(C(=O)NCc4ccc(F)cc4F)c1n32 [Compound 12] | 10 | 32 |  |  |
| CCN1C[C@H]2C[C@@H](NCc3ccccc3)c3c(C(=O)NCc4ccc(F)cc4F)c(=O)c(O)c(n32)C1=O [Compound 26] | 32 | 108 |  |  |
| CCN[C@@H]1C[C@@H]2CN(CC)C(=O)c3c(O)c(=O)c(C(=O)NCc4ccc(F)c(Cl)c4F)c1n32 [Compound 16] | > 42000 | > 42000 |  |  |
| CCN[C@@H]1C[C@@H]2CN(CC)C(=O)c3c(O)c(=O)c(C(=O)NCc4cccc(Cl)c4F)c1n32 [Compound 20] | 5 | 28 |  |  |
| CCN1C[C@@H]2C[C@H](NC(C)=O)c3c(C(=O)NCc4ccc(F)cc4F)c(=O)c(O)c(n32)C1=O [Compound 57] | 24 | 135 |  |  |
| CCN1C[C@H]2C[C@@H](NC)c3c(C(=O)NCc4ccc(F)cc4F)c(=O)c(O)c(n32)C1=O [Compound 8] | 2 | 33 |  |  |
| CCN1C[C@@H]2C[C@@H](N(C)C)c3c(C(=O)NCc4ccc(F)cc4F)c(=O)c(O)c(n32)C1=O [Compound 37] |  |  | 2 | 11 |
| CCN1C[C@@H]2C[C@@H](NS(C)(=O)=O)c3c(C(=O)NCc4ccc(F)cc4F)c(=O)c(O)c(n32)C1=O [Compound 47] | 1 | 10 |  |  |
| CCN[C@H]1C[C@@H]2CN(CC)C(=O)c3c(O)c(=O)c(C(=O)NCc4cccc(Cl)c4F)c1n32 [Compound 19] | 10 | 10900 |  |  |
| CCN1C[C@@H]2C[C@@H](N(C)C)c3c(C(=O)NCc4ccc(F)cc4)c(=O)c(O)c(n32)C1=O [Compound 39] | 3 | 22 |  |  |
| CCCN[C@H]1C[C@@H]2CN(CC)C(=O)c3c(O)c(=O)c(C(=O)NCc4ccc(F)cc4F)c1n32 [Compound 21] | 17 | 2290 |  |  |
| CCN1C[C@H]2C[C@H](NS(C)(=O)=O)c3c(C(=O)NCc4ccc(F)c(Cl)c4F)c(=O)c(O)c(n32)C1=O [Compound 51] | 9 | 17800 |  |  |
| CCN1C[C@@H]2C[C@@H](N(C)C)c3c(C(=O)NCc4cccc(Cl)c4F)c(=O)c(O)c(n32)C1=O [Compound 38] | 1 | 12 |  |  |
| CCN1C[C@@H]2C[C@@H](N)c3c(C(=O)NCc4ccc(F)cc4F)c(=O)c(O)c(n32)C1=O [Compound 1] |  |  | 2 | 19 |
| CCN1C[C@@H]2C[C@H](NC)c3c(C(=O)NCc4ccc(F)cc4F)c(=O)c(O)c(n32)C1=O [Compound 6] | 5 | 245 |  |  |
| CCCN1CC2CC(NS(C)(=O)=O)c3c(C(=O)NCc4ccc(F)cc4F)c(=O)c(O)c(n32)C1=O (single isomer, unassigned) [Compound 68] |  |  | 3 | 26 |
| CCN1C[C@@H]2CC(N3CCCC3)c3c(C(=O)NCc4ccc(F)cc4F)c(=O)c(O)c(n32)C1=O (single isomer, unassigned) [Compound 33] |  |  | 9 | 32 |
| CCN1C[C@@H]2CC(N3CCCC3)c3c(C(=O)NCc4ccc(F)cc4F)c(=O)c(O)c(n32)C1=O (single isomer, unassigned) [Compound 34] |  |  | 55 | 487 |
| CCN1C[C@H]2C[C@@H](NS(C)(=O)=O)c3c(C(=O)NCc4ccc(F)c(F)c4F)c(=O)c(O)c(n32)C1=O [Compound 48] | 7 | 23 |  |  |
| CCN[C@H]1C[C@H]2CN(CC)C(=O)c3c(O)c(=O)c(C(=O)NCc4ccc(F)cc4F)c1n32 [Compound 10] | 1 | 170 |  |  |
| CCN1C[C@H]2C[C@H](NS(=O)(=O)c3ccc(C)cc3)c3c(C(=O)NCc4ccc(F)cc4F)c(=O)c(O)c(n32)C1=O [Compound 53] | 34 | 2260 |  |  |
| CCN1C[C@@H]2C[C@@H](N3CCC3)c3c(C(=O)NCc4cccc(Cl)c4F)c(=O)c(O)c(n32)C1=O [Compound 40] | 5 | 20 |  |  |

| Structure (SMILES) | IC50 [1] [nM] | IC50 [2] [nM] | IC50 [3] [nM] | IC50 [4] [nM] |
| --- | --- | --- | --- | --- |
| CCN1C[C@@H]2C[C@H](NS(C)(=O)=O)c3c(C(=O)NCc4ccc(F)cc4F)c(=O)c(O)c(n32)C1=O [Compound 46] | 11 | 1040 |  |  |
| CCN1C[C@H]2C[C@H](N)c3c(C(=O)NCc4ccc(F)cc4F)c(=O)c(O)c(n32)C1=O [Compound 3] | 10 | 4500 |  |  |
| CCCN1CC2CC(NS(C)(=O)=O)c3c(C(=O)NCc4ccc(F)cc4F)c(=O)c(O)c(n32)C1=O (single isomer, unassigned) [Compound 69] |  |  | 7 | 4560 |
| CCCN1CC2CC(NS(C)(=O)=O)c3c(C(=O)NCc4ccc(F)cc4F)c(=O)c(O)c(n32)C1=O (single isomer, unassigned) [Compound 71] |  |  | 3 | 17 |
| CCN[C@H]1C[C@@H]2CN(CC)C(=O)c3c(O)c(=O)c(C(=O)NCc4ccc(F)c(Cl)c4F)c1n32 [Compound 15] | 13 | > 8400 |  |  |
| CCN1C[C@H]2C[C@@H](NCC3CC3)c3c(C(=O)NCc4ccc(F)cc4F)c(=O)c(O)c(n32)C1=O [Compound 24] | 20 | 37 |  |  |
| CCN1C[C@H]2C[C@@H](NS(=O)(=O)c3ccc(C)cc3)c3c(C(=O)NCc4ccc(F)cc4F)c(=O)c(O)c(n32)C1=O [Compound 52] | 22 | 310 |  |  |
| CCN1C[C@H]2C[C@H](NCc3ccccc3)c3c(C(=O)NCc4ccc(F)cc4F)c(=O)c(O)c(n32)C1=O [Compound 25] | 28 | 224 |  |  |
| CCN1C[C@@H]2C[C@@H](N3CCCC3)c3c(C(=O)NCc4cccc(F)c4F)c(=O)c(O)c(n32)C1=O (single isomer, unassigned) [Compound 43] | 10 | 42 |  |  |
| CCN1C[C@@H]2C[C@@H](NC)c3c(C(=O)NCc4ccc(F)cc4F)c(=O)c(O)c(n32)C1=O [Compound 5] | 2 | 17 |  |  |
| CCN[C@@H]1C[C@@H]2CN(CC)C(=O)c3c(O)c(=O)c(C(=O)NCc4c(F)cc(F)cc4F)c1n32 [Compound 14] | 6 | 47 |  |  |
| CCCN[C@@H]1C[C@@H]2CN(CC)C(=O)c3c(O)c(=O)c(C(=O)NCc4ccc(F)cc4F)c1n32 [Compound 22] | 11 | 34 |  |  |
| CCN1C[C@H]2C[C@@H](NS(C)(=O)=O)c3c(C(=O)NCc4ccc(F)cc4F)c(=O)c(O)c(n32)C1=O [Compound 44] |  |  | 2 | 19 |
| CCN[C@@H]1C[C@@H]2CN(CC)C(=O)c3c(O)c(=O)c(C(=O)NCc4cccc(F)c4F)c1n32 [Compound 18] | 10 | 25 |  |  |
| CCNC1CC2CN(CCOC)C(=O)c3c(O)c(=O)c(C(=O)NCc4ccc(F)cc4F)c1n32 (single isomer, unassigned) [Compound 67] |  |  | 7 | 31 |
| CCN1C[C@H]2C[C@H](NCCOC)c3c(C(=O)NCc4ccc(F)cc4F)c(=O)c(O)c(n32)C1=O [Compound 27] | 17 | 968 |  |  |
| CCN1C[C@H]2CC(N3CCCC3)c3c(C(=O)NCc4ccc(F)cc4F)c(=O)c(O)c(n32)C1=O (single isomer, unassigned) [Compound 35] |  |  | 26 | 62 |
| CCN1C[C@H]2C[C@@H](NS(C)(=O)=O)c3c(C(=O)NCc4ccc(F)c(Cl)c4F)c(=O)c(O)c(n32)C1=O [Compound 50] | 2 | 24 |  |  |
| CCNC1CC2CN(CCOC)C(=O)c3c(O)c(=O)c(C(=O)NCc4ccc(F)cc4F)c1n32 (single isomer, unassigned) [Compound 65] | 12 |  |  | 42 |
| CCN1C[C@H]2C[C@@H](NCCC(F)(F)F)c3c(C(=O)NCc4ccc(F)cc4F)c(=O)c(O)c(n32)C1=O [Compound 30] | 6 | 31 |  |  |
| CCN[C@H]1C[C@@H]2CN(CC)C(=O)c3c(O)c(=O)c(C(=O)NCc4cccc(F)c4F)c1n32 [Compound 17] | 14 | 1980 |  |  |
| CCN1C[C@H]2C[C@H](NS(C)(=O)=O)c3c(C(=O)NCc4ccc(F)cc4F)c(=O)c(O)c(n32)C1=O [Compound 45] |  |  | 7 | 1200 |
| CCN1C[C@@H]2C[C@@H](N3CCCC3)c3c(C(=O)NCc4cccc(Cl)c4F)c(=O)c(O)c(n32)C1=O [Compound 42] | 5 | 16 |  |  |
